From patent publication US7947854B2, “Bis-cationic compounds and use thereof” (The University of Sydney, priority 2003, dated 2011)
Marks after values point to notes of the source that are not given here.

What was measured:
Type in all cases: biochemical, Cryptococcus neoformans H99
[1] = system: C. neoformans strain H99 phospholipases; assay: Inhibition of C. neoformans strain H99 phospholipases (all enzymes and activities)
Procedure: Radiometric assay method for phospholipases. Enzyme activities were measured as described previously in a final volume of 125 μL at 37° C. For the determination of secreted PLB activity, carrier dipalmitoyl phosphatidylcholine (DPPC, final concentration 800 μM) and 1,2-di[1-^14C] palmitoyl phosphatidylcholine (20,000 dpm) were dried under nitrogen and suspended in 125 mM imidazole acetate buffer (assay buffer, pH 4.0) by sonication using a Branson 450 sonifier. The reaction time was 22 min, using 1 μg total protein and PLB activity was determined by the rate of decrease of the radiolabelled PC substrate, with appearance of the label in free fatty acid. […] These activities were measured by the appearance of radiolabel from PC in Lyso PC, diacylglycerol and phosphatidic acid, respectively.
Secreted LPL and LPTA activities were measured simultaneously in a reaction mixture containing 1-[^14C]palmitoyl lyso-PC (25,000 dpm) and carrier lyso-PC (final concentration 200 μM) in assay buffer. The reaction time was […] with 1 μg of total protein and LPL activity was measured by the rate of loss of 1-[^14C]palmitoyl lyso-PC with release of radiolabelled fatty acids. […]
All reactions were terminated by adding 0.5 mL of chloroform:methanol (2:1 v/v). […] 37:911-917, separated by TLC and quantified as previously described. […]

[2] = system: secreted phospholipase B (LPL/LPTA activities); assay: Radiometric assay, secreted LPL and LPTA activities (Lyso assay); settings: for % Inhibition LPL, Secretory Enzyme / % Inhibition LPTA, Secretory Enzyme: pH 4
In short: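 Cell-free supernatant from C. neoformans H99 (incubated 24 h at 37° C in imidazole buffer, pH 5.5) with 1 μg total protein and 200 μM lyso-PC incl. 1-[^14C]palmitoyl lyso-PC, 15 s reaction. LPL from substrate loss, LPTA from radiolabelled PC formed, after extraction and TLC; inhibitors tested at 25 and 250 μM, then 2.5 and 0.25 μM, inhibition vs inhibitor-free control, triplicate.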

[3] = system: membrane-associated phospholipase B (LPL/LPTA activities); assay: Radiometric assay, membrane-associated LPL/LPTA activities; settings: pH 4
Procedure: Fungal isolates and media. […] Isolate H99 was kindly supplied by Dr. Gary Cox (Duke University Medical Center, Durham, N.C., USA), and subcultured onto Sabouraud dextrose agar (SDA) at 30° C.
Cellular disruption to prepare membrane and cytosolic fractions. The cell pellet from the preparation of the supernatant, above, was also frozen at −70° C. After washing twice with imidazole buffer, it was disrupted in the presence of a protease inhibitor cocktail (P 8215 for fungal and yeast cells; 4-(2-aminoethyl)benzenesulfonyl fluoride hydrochloride, 100 mM, 1,10-phenanthroline, 500 mM, pepstatin A, 2.2 mM, E-64, 1.4 mM; Sigma) in a MiniBeadbeater-8 Cell Disrupter (MBB-8; Daintree Scientific, Tasmania, Australia) for three cycles of 1 min, alternating with a 1 min cooling period on ice. The homogenate was centrifuged at 14,000 g for 15 min to obtain the membrane (pellet) and the cytosolic (supernatant) fractions.
Secreted LPL and LPTA activities were measured simultaneously in a reaction mixture containing 1-[^14C]palmitoyl lyso-PC (25,000 dpm) and carrier lyso-PC (final concentration 200 μM) in assay buffer. The reaction time was […] with 1 μg of total protein and LPL activity was measured by the rate of loss of 1-[^14C]palmitoyl lyso-PC with release of radiolabelled fatty acids. LPTA activity was estimated from the rate of formation of radiolabelled PC.
All reactions were terminated by adding 0.5 mL of chloroform:methanol (2:1 v/v). The reaction products were extracted by the method as disclosed in Bligh, E. C. and W. J. Dyer. 1959 ‘A rapid method of total lipid extraction and purification.’ Can. J. Biochem. Physiol. 37:911-917, separated by TLC and quantified as previously described. In the case of PLC activity, the TLC plates were developed in petroleum ether (BP 60-80° C.): diethyl ether: acetic acid (90:15:1, v/v/v) instead of chloroform:methanol:water (65:25:4, v/v/v).
All experiments were carried out in duplicate or triplicate. The effects of pH on the various phospholipase activities were measured using 50 mM final concentration of imidazole-acetate buffer (pH range 3-5), MES buffer (pH range 6-8) and glycine buffer (pH 9-10). Controls for non-enzymic breakdown of substrates were included at all pH values. Cations, Triton X-100 and metal chelators were made up as stock solutions in water and diluted to the final concentration in the appropriate assay buffer.
Preparation of inhibitors and use in assays. The following compounds were tested (for structures, see FIG. 2): compound 1, 1,12-bis(tributylphosphonium)dodecane dibromide (Fluka AG, Buchs, Switzerland); compound 2, 1,10-bis(tributylammonium)-decane dibromide; compound 3, 1,12-bis(tributylammonium)do-decane dibromide (both synthesised in-house); compound 4, 1,10-bis(trimethylammonium)decane dibromide [“decamethonium”] (Sigma, St. Louis Mo., USA). All compounds were prepared as stock solutions of 700 μM in assay buffer containing 5 mM EDTA, which was then diluted serially with buffer to obtain solutions of 70, 7, 0.7 and 0.07 μM. In each assay, 45 μL of these solutions was used, and the final volume of 125 μL was made up of substrate, enzyme and buffer. The radiometric assay was carried out as above. Inhibition was calculated as the percent of substrates (DPPC or Lyso-PC) remaining in the case of PLB and LPL activities, or of DPPC produced, in the case of the LPTA activity. The amounts converted, or produced, in the inhibitor-free control were normalised to 100%, and the inhibition calculated against it. All assays were done in triplicate.
Under these conditions only PLB, LPL and LPTA activities (both secreted and cell-associated) were measured. Initially, compounds deemed to be potential inhibitors were assayed at 25 and 250 μM.

CCCC[N+](CCCC)(CCCC)CCCCCCCCCCCC[N+](CCCC)(CCCC)CCCC [Compound 3, 1,12-bis(tributylammonium)do-decane dibromide]
enzyme (phospholipase) inhibition, in words [1]: inhibits

CCCC[P+](CCCC)(CCCC)CCCCCCCCCCCC[P+](CCCC)(CCCC)CCCC [Compound 1, 1,12-bis(tributylphosphonium)dodecane dibromide]
Lyso assay (% inhibition) LPL ([2]; 0.25 μM): 0% | Lyso assay (% inhibition) LPTA ([2]; 0.25 μM): 0% | % Inhibition LPL, Secretory Enzyme ([2]; 0.25 μM): 0% | % Inhibition LPTA, Secretory Enzyme ([2]; 0.25 μM): 0% | Lyso assay (% inhibition) LPL ([2]; 2.5 μM): 0% | Lyso assay (% inhibition) LPTA ([2]; 2.5 μM): 0% | % Inhibition LPL, Secretory Enzyme ([2]; 2.5 μM): 0% | % Inhibition LPTA, Secretory Enzyme ([2]; 2.5 μM): 0% | Lyso assay (% inhibition) LPL ([2]; 25 μM): 0% | Lyso assay (% inhibition) LPTA ([2]; 25 μM): 0% | % Inhibition LPL, Secretory Enzyme ([2]; 25 μM): 0% | % Inhibition LPTA, Secretory Enzyme ([2]; 25 μM): 0% | Lyso assay (% inhibition) LPL ([2]; 250 μM): 6% | Lyso assay (% inhibition) LPTA ([2]; 250 μM): 4% | % Inhibition LPL, Secretory Enzyme ([2]; 250 μM): 6.3* % | % Inhibition LPTA, Secretory Enzyme ([2]; 250 μM): 3.7* % | % Inhibition LPL, Membrane-bound Enzyme ([3]; 2.5 μM): 0% | % Inhibition LPTA, Membrane-bound Enzyme ([3]; 2.5 μM): 0% | % Inhibition LPL, Membrane-bound Enzyme ([3]; 25 μM): 0% | % Inhibition LPTA, Membrane-bound Enzyme ([3]; 25 μM): 0% | % Inhibition LPL, Membrane-bound Enzyme ([3]; 250 μM): 0% | % Inhibition LPTA, Membrane-bound Enzyme ([3]; 250 μM): 0%
